Results taken from US12576169B2, “Silicon-fluoride acceptor substituted radiopharmaceuticals and precursors thereof” (Technische Universität München, priority 2019, dated 2026).
Like-named read-outs stand apart in the source and are kept apart here.

Columns and labels:
HSA = HSA (Homo sapiens, UniProt P02768); conditions: cited from earlier work; for Lit. HSA binding: literature values (Yamazaki, Kanaoka 2004); for Log K HSA: logarithmic K of HSA binding literature values
[1] = n-Octanol-PBS partition coefficient (logD7.4); type: physicochemical; conditions: 18F-labeled ligand; n-octanol/PBS pH=7.4; mean ± SD (n = 5)
Description: Approx. 0.5 MBq of the ^18F-labeled SiFA-PSMA ligand were added into a test tube containing n-octanol (500 μL) and PBS (500 μL, pH=7.4). After vigorously shaking the two-phase mixture for 3 min at rt, the test tube was centrifuged at 9.000 rpm for 5 min to achieve quantitative phase separation. Finally, 150 μL of each layer were pipetted off and measured for activity using a gamma counter. After repeating the experiment for at least five times, the n-octanol-PBS partition coefficient log D7.4 was calculated according to following formula.

PSMA [2] = biological target: T1, PSMA (Homo sapiens, UniProt Q04609); experiment: IC50 determination: PSMA binding affinity, competition with [125I]XII on LNCaP cells
Description: LNCaP cells were grown in Dulbecco's Modified Eagle Medium/Nutrient Mixture F-12 (DMEM/F-12, add. 10% fetal calf serum (FCS), v/v) and maintained at 37° C. in a humidified 5% CO2 atmosphere. […] After removal of the culture medium, LNCaP cells were treated with HBSS (add. 1% BSA, v/v, 4° C., 500 μL) and subsequently left 15 min on ice for equilibration in HBSS (add. 1% BSA, v/v, 4° C., 200 μL). […] For the control series, HBSS (add. 1% BSA, v/v, 25 μL) was used instead of the SiFA-PSMA ligand solution. Each concentration and the control were prepared in triplicate. After 1 h incubation on ice, the assay medium was removed and cells were washed with HBSS (200 μL, 4° C.). […] NaOH (200 μL) for at least 10 min and the resulting cell lysate was removed. The wells were treated again with 1 M aq. […] The experiment was repeated for at least three times and the IC50 value calculated using the GraphPad PRISM 8.0.2 software (Graphpad Software Inc., La Jolla, United States).

LNCaP cells = experiment: Internalization of 18F-labeled ligands into LNCaP cells; type: cell-based, human; conditions: internalized activity at 1 h in % of reference [125I]XII; c = 0.5 nM; LNCaP cells (125.000 cells/well); 37° C., DMEM/F-12 add. 5% BSA; corrected for non-specific binding (10 μm PMPA); mean ± SD (n = 3)
Description: LNCaP cells were grown in DMEM/F-12 (add. 10% FCS, v/v) and maintained at 37° C. in a humidified 5% CO2 atmosphere. […] Subsequent to the removal of the culture medium, cells were washed with DMEM-F12 (add. 5% BSA, v/v, 500 μL) and left to equilibrate in DMEM-F12 (add. 5% BSA, v/v, 200 μL) at 37° C. for 15 min. Each well was treated with either DMEM-F12 (add. 5% BSA, v/v, 25 μL) or a 2-(phosphonomethyl)-pentandioic acid (PMPA) solution (100 μM in PBS, 25 μL) for blockade. Afterwards, the ^18F-labeled SiFA-PSMA ligand (5 nM in PBS, 25 μL) was added and the cells were incubated for 1 h at 37° C. The experiment was terminated by placing the 24-well plate on ice for 3 min and removal of the assay medium. Each well was rinsed with HBSS (4° C., 250 μL) and the fractions were combined with the previous assay medium, representing the amount of unbound radioligand. For removal of surface bound activity, LNCaP cells were incubated with PMPA solution (10 μM in PBS, 4° C., 250 μL) for 5 min and rinsed again with PBS (250 μL, 4° C.). The internalized activity was determined by incubation of LNCaP cells with 1 M aq. NaOH (250 μL) for at least 10 min and combination with the fraction of a subsequent wash step with 1 M aq. NaOH (200 μL). Each experiment (control and blockade) was performed in triplicate. […] All internalization studies were accompanied by reference studies using the reference compound XII (2 nM in HBSS add. 1% BSA, v/v), which were performed analogously. Data were corrected for non-specific internalization and normalized to the specific-internalization observed for the radioiodinated reference compound.

[3] = biological target: T2, human serum albumin (HSA) (Homo sapiens, UniProt P02768); experiment: Binding to HSA on a Chiralpak HSA column; type: in vitro ADME; conditions: calibration with nine reference substances
T2 construct: purchased H13H-2433
Description: For the determination of human serum albumin (HSA) binding, a Chiralpak HSA column (50×3 mm, 5 μm, H13H-2433) was used at a constant flow rate of 0.5 mL/min. The mobile phase composed of a 50 mM NH4OAc solution in water with pH=7 (solvent C) and isopropanol (solvent D) was freshly prepared for each experiment and used only once. The reference substances (Table 1) as well as the analyzed SiFA-PSMA ligands were dissolved in a mixture of solvent C/solvent D (1:1, v/v, 0.5 mg/mL) and eluted from the HSA column (0-3 min: 100% C, 3-20 min: 20% D in C, λ=254 nm). The column was kept at rt and each run was stopped after detection of the signal to reduce the acquisition time. The nine reference substances display an HSA binding range of 13% to 99% and were injected consecutively in order to establish a sigmoidal calibration curve with the software OriginPro 2018b (FIG. 1).

[4] = radiolabeled established inhibitors; literature; cited from earlier work
PSMA [5] = biological target: T1, PSMA; conditions: PSMA binding affinity; literature; cited from earlier work
PSMA [6] = biological target: T1, PSMA; conditions: after 1 h; literature; cited from earlier work
[7] = Wangler et al. 2010; cited from earlier work

T1 sequence (Q04609 whole entry): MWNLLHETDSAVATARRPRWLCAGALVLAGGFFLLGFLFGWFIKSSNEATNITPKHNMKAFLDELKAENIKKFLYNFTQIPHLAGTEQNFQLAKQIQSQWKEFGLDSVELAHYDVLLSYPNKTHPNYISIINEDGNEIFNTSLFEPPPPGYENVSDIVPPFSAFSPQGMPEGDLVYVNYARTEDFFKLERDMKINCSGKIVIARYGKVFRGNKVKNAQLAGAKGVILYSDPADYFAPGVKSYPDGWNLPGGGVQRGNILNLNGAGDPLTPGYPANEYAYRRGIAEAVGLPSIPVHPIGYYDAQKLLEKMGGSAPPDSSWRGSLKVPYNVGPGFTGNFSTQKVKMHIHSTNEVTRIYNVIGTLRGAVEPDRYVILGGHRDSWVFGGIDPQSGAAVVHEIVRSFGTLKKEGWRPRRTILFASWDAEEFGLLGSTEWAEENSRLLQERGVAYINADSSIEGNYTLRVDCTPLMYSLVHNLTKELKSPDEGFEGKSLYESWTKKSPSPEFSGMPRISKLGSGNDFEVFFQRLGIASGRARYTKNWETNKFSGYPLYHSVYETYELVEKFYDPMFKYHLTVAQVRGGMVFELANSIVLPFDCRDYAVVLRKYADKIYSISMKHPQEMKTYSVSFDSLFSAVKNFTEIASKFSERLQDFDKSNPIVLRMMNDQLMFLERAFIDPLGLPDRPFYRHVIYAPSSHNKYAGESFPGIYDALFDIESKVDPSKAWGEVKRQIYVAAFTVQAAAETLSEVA
Sequence of HSA (P02768 25-609): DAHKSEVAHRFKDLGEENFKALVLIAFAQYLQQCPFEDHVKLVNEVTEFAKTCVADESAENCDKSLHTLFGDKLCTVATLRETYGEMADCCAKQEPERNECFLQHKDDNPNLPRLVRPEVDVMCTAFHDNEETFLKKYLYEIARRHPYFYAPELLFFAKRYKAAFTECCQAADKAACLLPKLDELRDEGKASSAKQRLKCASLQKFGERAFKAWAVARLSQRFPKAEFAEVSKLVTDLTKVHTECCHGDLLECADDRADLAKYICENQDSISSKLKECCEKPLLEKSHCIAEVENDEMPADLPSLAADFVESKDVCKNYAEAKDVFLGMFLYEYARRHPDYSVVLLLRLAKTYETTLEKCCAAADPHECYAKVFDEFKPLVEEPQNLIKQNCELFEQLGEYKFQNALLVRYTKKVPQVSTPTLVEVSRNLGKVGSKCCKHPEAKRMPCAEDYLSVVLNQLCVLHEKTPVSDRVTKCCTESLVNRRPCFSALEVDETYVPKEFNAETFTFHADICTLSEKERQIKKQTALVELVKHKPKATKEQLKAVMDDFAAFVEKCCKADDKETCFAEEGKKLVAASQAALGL
T2 sequence (P02768 25-609): as above

Compound	Lit. HSA binding (HSA) [%]	Log K HSA (HSA)	logP(o/w) [4]	also measured
Nc1ccccc1 [Aniline]	14.06	−0.7912		
OCc1ccccc1 [Benzyl alcohol]	13.15	−0.8248		
COc1ccc(Cl)cc1C(=O)NCCc1ccc(S(=O)(=O)NC(=O)NC2CCCCC2)cc1 [Glibenclamide]	99.00	1.695		
Oc1ccccc1 [Phenol]	20.69	−0.589		
CC(C)(C)[Si](F)(c1ccc(C(=O)N[C@H](CC(=O)N[C@H](CCCCNC(=O)CCC(=O)NCCC[C@@H](NC(=O)CC[C@H](NC(=O)N[C@@H](CCC(=O)O)C(=O)O)C(=O)O)C(=O)O)C(=O)O)C(=O)N[C@H](CCCCNC(=O)CCC(=O)NCCC[C@@H](NC(=O)CC[C@H](NC(=O)N[C@@H](CCC(=O)O)C(=O)O)C(=O)O)C(=O)O)C(=O)O)cc1)C(C)(C)C [SiFA-PSMA ligand 06]				logD7.4 [1]: −3.77 ± 0.04; IC50 (PSMA [2]): 7.4 ± 1.9 nM; Internalization (LNCaP cells): 270.03 ± 16.10%; Binding to HSA [3]: ≥98.9%
O=C(O)CC[C@H](NC(=O)N[C@@H](CCCCNC(=O)[C@H](Cc1ccc2ccccc2c1)NC(=O)[C@H]1CC[C@H](CNC(=O)CN2CCN(CC(=O)O)CCN(CC(=O)O)CCN(CC(=O)O)CC2)CC1)C(=O)O)C(=O)O [[^68Ga]PSMA-617, PSMA-617, metal not drawn]			−4.30 ± 0.10	
O=C(O)CC[C@H](NC(=O)N[C@@H](CCCCNC(=O)c1ccc([18F])nc1)C(=O)O)C(=O)O [[^natF/^18F]DCFPyI, DCFPyI]			−3.4	
O=C([O-])CN(CCN(CC(=O)[O-])Cc1cc(CCC(=O)NCCCCCC(=O)NCCCC[C@H](NC(=O)N[C@@H](CCC(=O)O)C(=O)O)C(=O)O)ccc1[O-])Cc1cc(CCC(=O)O)ccc1[O-].[68Ga+3].[OH3+] [[^natGa/^68Ga]PSMA-11, PSMA-11]			−4.1 ± 0.1	IC50 (PSMA [5]): 6.1 ± 0.8 nM; Internalization (1 h) (PSMA [6]): 91.1 ± 1.7
PSMA I&T [[^natGa/^68Ga]PSMA I&T]			−4.3 ± 0.3	IC50 (PSMA [5]): 9.3 ± 3.3 nM; Internalization (1 h) (PSMA [6]): 59.2 ± 1.7
PSMA-1007 [[^natF/^18F]PSMA-1007]			−1.6	IC50 (PSMA [5]): 4.2 ± 0.5 nM
SiFA-Asn(AcNH-β-Glc)-PEG-Tyr^3-octreotate				log P(ow) [7]: 0.96
SiFA-Asn(AcNH-β-Glc)-Tyr^3-octreotate				log P(ow) [7]: 1.23
